Where a SMILES comes first, the peptide text is derived from it. [ ]: non-standard residue; d: D form.

This data set has as its system APPswe/PS1dE9 mice. Description: Treatment of APPswe/PS1dE9 mice. The data set is classed as in vivo, mouse. The following applies: for amyloid burden (plaque count, area fraction): 4G8 immunohistochemistry. The source says: Heterozygous four-month-old female APPswe/PS1dE9 transgenic mice were used in this study. These mice express human APP carrying the Swedish mutation together with human presenilin 1 (PS1) carrying the pathogenic dE9 mutation. Animals were divided in 2 experimental groups (n = 10 each), treated i.p. once a week with saline solution or Aβ1-6A2VTAT(D) and culled 2.5 (intermediate time) and 5 months (final time) after treatment. In both mouse transgenic lines, the brain was removed and dissected into 2 hemibrains by midsagittal dissection. One half was immediately stored at […] for biochemical assays, the other immediately immersed in formalin (10%) overnight for immunohistochemical studies.
The Novel Object Recognition test (NOR) was used to examine the cognitive performance of animal models involved in preclinical studies, following well consolidated protocols. The results of the NOR were expressed by using:
- Discrimination index (time exploring novel object - time exploring familiar object)/(time exploring novel object + time exploring familiar object).
- Recognition index (RI): time exploring novel object/(time exploring novel object + time exploring familiar object) %.
The left hemisphere of each brain was homogenized in 7 volumes of 10 mM Tris-HCl, pH 7.4, added with cOmplete Mini Protease Inhibitors cocktail (Roche), sonicated for 1 min using an ultrasonic homogenizer (SONOPULS) and centrifuged at 100,000 xg for 1 h at 4 °C. The supernatant was saved as the soluble fraction; the pellet was extracted in 70% formic acid and neutralized with 20 volumes of 1 M Tris (insoluble fraction).
Aβ40, Aβ42 and aggregated Aβ were measured in both soluble and insoluble fractions by ELISA (Invitrogen). Each experiment was performed in triplicate. The analysis of APP processing followed the protocol described above. After centrifugation, the supernatant was collected as the SDS-soluble fraction, which was analyzed by western blot with the A8717 antibody (Sigma). Signal intensity of the bands was measured by Quantity One (BioRad).
Coronal slices of the right hemibrain were embedded in paraffin and cut (7μm); sections were de-waxed in xylene and hydrated through serial alcohols to water. After formic acid (80%) pre-treatment, sections were incubated overnight with anti-Aβ antibody (4G8, 1:4000; Covance). The primary antibody signal was detected with a biotinylated secondary antibody followed by horseradish streptavidin peroxidase and visualized with DAB. Amyloid deposition was quantified in mouse brain using Aβ immunostaining (4G8) and the staining intensity was evaluated semiquantitatively using a scale range from 0 to 5 by light microscopy. The assessment was conducted in two adjacent sections of the same brain area[49]. A parallel quantification of the Aβ plaque load was performed using image analysis software (NIS-elements-Nikon)[50][51][52].

[1] abbreviates: i.p. 10 mg/kg once a week for 2.5 months, vs saline, ELISA.
Setting [2] is: i.p. 10 mg/kg once a week for 5 months, vs saline.

In the case of `CC(C)[C@@H](NC(=O)[C@H](N)CC(=O)O)C(=O)N[C@H](CCC(=O)O)C(=O)N[C@H](Cc1ccccc1)C(=O)N[C@H](CCCNC(=N)N)C(=O)N[C@H](Cc1c[nH]cn1)C(=O)NCC(=O)NCC(=O)NCC(=O)NCC(=O)NCC(=O)N[C@H](CCCNC(=N)N)C(=O)N[C@H](CCCCN)C(=O)N[C@H](CCCCN)C(=O)N[C@H](CCCNC(=N)N)C(=O)N[C@H](CCCNC(=N)N)C(=O)N[C@H](CCC(N)=O)C(=O)N[C@H](CCCNC(=N)N)C(=O)N[C@H](CCCNC(=N)N)C(=O)N[C@H](CCCNC(=N)N)C(=O)O` [Aβ1-6A2VTAT(D)] (H-[dD][dV][dE][dF][dR][dH]GGGGG[dR][dK][dK][dR][dR][dQ][dR][dR][dR]-OH; N-terminus assumed), the “effects on APP processing (C99:C83 ratio), short-term” value (after 2.5 months of treatment, western blot) is listed as “not observed after short-term treatment schedules”. In addition, for the setting “chronic treatment, data not shown”, the “side effect on brain (neuropathologic studies)” value is on record as “did not result in any evident side effect on brain”. For the same molecule, the “Novel Object Recognition test scores” value (i.p. 10 mg/kg once a week for 2.5 months) is given as “small, albeit not statistically significant, improvement”. Besides, the “amyloid burden (plaque count, area fraction)” value (i.p. 10 mg/kg once a week for 2.5 months, vs saline) is “reduction of amyloid burden”. Under setting [1], the “brain Aβ40” value was “not changed compared to controls”; the “brain Aβ42 in the insoluble fraction” value is recorded as “concomitant decrease in the insoluble fraction”; the “brain Aβ42 in the soluble fraction” value is listed as “increase of Aβ42 in the soluble fraction”; the “brain aggregated Aβ, soluble and insoluble fraction” value is on record as “reduced in both the compartments”. Besides, under setting [2], the “Novel Object Recognition test, recognition and discrimination indexes” value is on record as “preserved cognitive function”; the “amyloid burden (plaque count, area fraction)” value is on record as “unexpectedly increased”. For the same molecule, the “brain Aβ levels (Aβ40, Aβ42, aggregated Aβ)” value (i.p. 10 mg/kg once a week for 5 months, vs saline, ELISA) is on record as “no significant difference compared to mice treated with saline solution”. For the same molecule, the “C99:C83 ratio in brain (APP processing)” value (i.p. every 7 days for 5 months, western blot densitometry) is “increase in the C99:C83 ratio”.

(Values after paper PMC4750079, “Tackling amyloidogenesis in Alzheimer’s disease with A2V variants of Amyloid-β” (Scientific Reports, 2016).)
